Legend:
[1] = tested on: Foxp3 CNS1-luciferase reporter / Smad3; assay: Foxp3 CNS1-luciferase reporter assay in NIH/3T3 cells; format: cell-based, mouse; conditions: 20 μM
[2] = tested on: TGF-β/Smad signaling in CD4+ T cells; assay: qPCR analysis of TGF-β/Smad signaling downstream genes; format: cell-based, mouse; conditions: 20 μM 17aa, 24 h
Method: Figure 4 Dleu2-17aa modulates TGF-β/Smad signaling to promote Foxp3 transcription. (A) qPCR analysis of TGF-β/Smad signaling downstream genes in CD4^+ T cells treated with Dleu2-17aa or scrPEP for 24 h and challenged with TGF-β to activate the signaling pathway (n = 3). (B) NIH/3T3 cells were transfected with a Foxp3 CNS1-luciferase reporter plasmid and a Smad3 expression vector. Subsequently, the cells were treated with either Dleu2-17aa or scrPEP. Luciferase activity fold induction was quantified (n = 3). (C) Foxp3 CNS1 region enrichment by Smad3 treated with or without Dleu2-17aa for 24 h in CD4^+ T cells was assessed by ChIP-qPCR (n = 3). (D) EMSA was performed in NIH/3T3 cell nuclear lysates using a 10 μM biotin-labeled Foxp3 probe and treated with Dleu2-17aa or scrPEP (3, 10, 30 μM). There were band shifts to a higher molecular weight and an increase in band intensity by Dleu2-17aa treatment. Data information: n indicates biological replicate. Error bars are mean ± SEM; **P < 0.01, and ***P < 0.001. Statistical analysis was by two-tailed Student’s t-test for (A–C). Source data are available online for this figure.
Total RNA from cells or tissues was extracted using TRIzol reagent (Invitrogen) and then quantified. 1 μg of total RNA was reverse transcribed into cDNA with HiScript II Q RT SuperMix for qPCR (+gDNA Wiper) (Vazyme, China, R223-01). The cDNA samples were run in triplicate at 200 ng/well. Quantitative real-time PCR (qPCR) was performed using ChamQ Universal SYBR qPCR Master Mix (Vazyme, China) on an Applied Biosystems 7500 Fast Real-Time PCR System or a ViiA 7 Real-Time PCR System (Applied Biosystems). All gene expression results were normalized to the expression of the housekeeping gene GAPDH. Primer sequences are listed as follows: Dleu2 forward, 5′-[…]-3 and reverse, 5′-[…]-3; Foxp3 forward, 5′-CCCATCCCCAGGAGTCTTG-3′ and reverse, 5′-[…]-3′; Ctla2a forward, 5′-[…]-3′ and reverse, 5′-[…]-3′; Ccr8 forward, 5′-[…]-3′ and reverse, 5′-[…]-3′; Tgf-β forward: 5′-[…]-3′ and reverse, 5′-[…]-3′; Ctla4 forward, 5′-[…]-3′ and reverse, 5′-[…]-3′; Gapdh forward, 5′-[…]-3′ and reverse, 5′-GGGGTCGTTGATGGCAAC-3′.

## ARGPARRMRGGRRRRLR [scrPEP, scrambled control peptide of Dleu2-17aa]
[1]; with Smad3 vector, replicate 4
  Relative luciferase activity: 1.896
[1]; with Smad3 vector, replicate 5
  Relative luciferase activity: 1.262
[1]; without Smad3 vector, replicate 4
  Relative luciferase activity: 0.7583
[1]; without Smad3 vector, replicate 5
  Relative luciferase activity: 0.8478
[2]; TGF-β, replicate 1
  Relative mRNA expression, Ccr8: 1.77
  Relative mRNA expression, Clta4: 4.488
  Relative mRNA expression, Ctla2a: 7.981
  Relative mRNA expression, Foxp3: 19.2862
  Relative mRNA expression, Tgf-β: 0.9918
[2]; TGF-β, replicate 2
  Relative mRNA expression, Ccr8: 1.871
  Relative mRNA expression, Clta4: 3.767
  Relative mRNA expression, Ctla2a: 6.697
  Relative mRNA expression, Foxp3: 27.373
  Relative mRNA expression, Tgf-β: 0.9024
[2]; TGF-β, replicate 3
  Relative mRNA expression, Ccr8: 1.768
  Relative mRNA expression, Clta4: 4.326
  Relative mRNA expression, Ctla2a: 4.254
  Relative mRNA expression, Foxp3: 26.607
  Relative mRNA expression, Tgf-β: 1.365
[2]; no TGF-β, replicate 1
  Relative mRNA expression, Ccr8: 1
  Relative mRNA expression, Clta4: 1
  Relative mRNA expression, Ctla2a: 1
  Relative mRNA expression, Foxp3: 1
  Relative mRNA expression, Tgf-β: 1
[2]; no TGF-β, replicate 2
  Relative mRNA expression, Ccr8: 0.871
  Relative mRNA expression, Clta4: 0.794
  Relative mRNA expression, Ctla2a: 0.868
  Relative mRNA expression, Foxp3: 1
  Relative mRNA expression, Tgf-β: 0.7198
[2]; no TGF-β, replicate 3
  Relative mRNA expression, Ccr8: 1
  Relative mRNA expression, Clta4: 0.856
  Relative mRNA expression, Ctla2a: 1
  Relative mRNA expression, Foxp3: 0.967
  Relative mRNA expression, Tgf-β: 0.8563

Source: paper PMC10933344, “A lncRNA Dleu2-encoded peptide relieves autoimmunity by facilitating Smad3-mediated Treg induction” (EMBO Reports, 2024)
